Experimental data from patent US5719303A, “Phosphonic acid derivatives” (Eisai Co., Ltd., priority 1993, dated 1998).

Target: T1, squalene synthetase (Rattus norvegicus, UniProt Q02769)
T1 construct: 50 μl of a 1 mg/ml rat liver microsome; from tissue; host or cells: liver microsomes of Sprague-Dawley rats fed 2% cholestyramine; 105000 g fraction
T1 sequence (Q02769 1-416): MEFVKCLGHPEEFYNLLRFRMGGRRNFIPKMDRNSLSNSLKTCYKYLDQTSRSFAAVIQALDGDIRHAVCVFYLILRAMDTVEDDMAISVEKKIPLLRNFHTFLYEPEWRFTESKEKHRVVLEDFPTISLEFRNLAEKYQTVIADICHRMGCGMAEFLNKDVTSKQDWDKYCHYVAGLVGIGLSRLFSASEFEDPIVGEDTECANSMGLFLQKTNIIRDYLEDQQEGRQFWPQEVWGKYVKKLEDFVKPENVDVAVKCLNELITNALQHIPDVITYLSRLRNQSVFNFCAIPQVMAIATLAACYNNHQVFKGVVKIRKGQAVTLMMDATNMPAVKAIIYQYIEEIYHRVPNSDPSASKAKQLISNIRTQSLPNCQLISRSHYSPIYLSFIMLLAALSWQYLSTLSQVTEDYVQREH
Test: Inhibitory activity against squalene synthetase (3H-FPP to squalene, rat liver microsome)
Type: biochemical
Conditions: 3H-FPP substrate, 37° C., 10 minutes, pH 7.4
Protocol: 50 μl of 500 mM Tris-HCl (pH: 7.4), 50 μl of 10 mM magnesium chloride, 50 μl of 2 mM potassium fluoride, 50 μl of 10 mM nicotinamide adenine dinucleotide phosphate (hereinafter abbreviated to "NADPH"), 100 μl of a sample solution of five-fold concentration, 100 μl of distilled water and 50 μl of a 1 mg/ml rat liver microsome were put in a centrifuge tube, with the liver microsome being one prepared by the method which will be described below.
The above mixture was preincubated at 37° C. for 5 minutes. 50 μl of 100 μM 3H-FPP (10 mCi/mmol, NEN) was added to the resulting mixture to initiate a reaction. After 10 minutes, 1 ml of 4N sodium hydroxide was added to the mixture to stop the reaction, followed by the addition of 1 ml of ethanol. The obtained mixture was incubated at 80° C. for 12 hours, cooled with ice and extracted with petroleum ether twice. The petroleum ether phases were separated from the aqueous phase and evaporated to dryness with nitrogen gas. The residue was dissolved in 25 μl of chloroform containing squalene, farnesol and cholesterol as markers. The obtained solution was applied to TLC (Empore: 412001-1) and developed with benzene/isopropyl ether (1:1) for 6 minutes and with heptane for 15 minutes.
The band of squalene was cut from the plate and examined for radioactivity with a liquid scintillation counter to determine the inhibitory ratio.
The rate liver microsome used in the above experiment was prepared as follows.
A Sqraque-Dawley rat was fed with a feed containing 2% of cholestyramine (Dowex 1-X2) for at least 5 days to enhance the cholesterol biosynthesis activity. At midnight (0:00), the liver was extirpated from the rat. A 1.15 (w/v) % potassium chloride solution was circulated in the blood vessel of the liver extirpated under cooling with ice to remove the blood. The resulting liver was cut into small pieces with scissors, homogenized with a Teflon homogenizer of loose fitting type and subjected to centrifugation (700 g, 10 minutes). The obtained supernatant was further subjected to centrifugation (15000 g, 20 minutes) and the obtained supernatant was subjected to centrifugation (105000 g, 60 minutes) to be separated into a microsome fraction and a supernatant. This microsome fraction was washed with a 0.1M potassium phosphate buffer (pH: 7.4) once, and suspended in the same buffer in a liver concentration of 3 g/ml. The obtained suspension was examined for protein content by the Lowry method and the protein content of the suspension was adjusted to 20 mg/ml.

IC50 [nM] | Structure (SMILES)
170 | C/C(=C\CN(C)CC(O)CC(C(=O)O)P(=O)(O)O)CCc1ccc2ccccc2c1 (mixture of isomers) [Example 19, Trisodium 1-carboxy-4-[N-methyl-3-methyl-5-(2-naphthyl)-2-pentenylamino]-3-hydroxybutylphosphonate (diastereomeric mixture)]
2.4 | CC(O)c1ccc(Cc2ccc(CN(C)CCCC(P(=O)(O)O)P(=O)(O)O)cc2)cc1 (stereo not drawn) [Example 14, Tetrasodium 4[N-methyl-4-[4-(1-hydroxyethyl)benzyl]benzylamino]butylidene-1-diphosphonate]
0.81 | CC(C)=CCC/C(C)=C/CN(C)C(=O)OCCCC(P(=O)(O)O)P(=O)(O)O [Example 15, Tetrasodium 4-[(E)-N-(3,7-dimethylocta-2,6-dienyl)-N-methylcarbamoyloxybutylidene-1,1-diphosphonate]
0.28 | COc1ccc(C(=O)C2CCN(CCCC(P(=O)(O)O)P(=O)(O)O)CC2)cc1 [Example 16, 4-[4(4-Methoxybenzoyl)piperidino]butylidene-1,1-diphosphonic acid]
1.4 | CN(CCCC(P(=O)(O)O)P(=O)(O)O)Cc1ccc(-c2ccccc2)cc1 [Example 32]
5 | CN(CCCC(P(=O)(O)O)P(=O)(O)O)Cc1ccc(-c2cccnc2)s1 [Example 41]
1.8 | CC(O)c1ccc(-c2ccc(CN(C)CCCC(P(=O)(O)O)P(=O)(O)O)s2)cc1 (stereo not drawn) [Example 42]
2.4 | COc1ccccc1C(C)=CCN(C)CCCC(P(=O)(O)O)P(=O)(O)O [Example 114]
0.91 | CN(CCCC(P(=O)(O)O)P(=O)(O)O)Cc1ccc(C(=O)c2ccccc2)c(O)c1 [Example 201]
1.3 | O=P(O)(O)C(CC1CCN(Cc2cccc(/C=C/c3ccccc3)c2)CC1)P(=O)(O)O [Example 209]
4 | Cc1c(-c2ccccc2)ncn1CCCNC(P(=O)(O)O)P(=O)(O)O [Example 210]
1 | C/C(=C\CC(P(=O)(O)O)P(=O)(O)O)CCc1ccc2ccccc2c1 [Example 223]
3 | CC(C)=CCC/C(C)=C/CC/C(C)=C/c1cccc(C(P(=O)(O)O)P(=O)(O)O)c1 [Example 230]
0.54 | CC(=O)c1cccc(/C(C)=C/CN(C)CCCC(P(=O)(O)O)P(=O)(O)O)c1 [Example 238]
3.1 | CC(=O)c1ccc(Cc2ccc(CN(C)CCCC(P(=O)(O)O)P(=O)(O)O)cc2)cc1 [Example 246]
